# Reference: US10253052B2, “HBED-bisphosphonates, radiometal conjugates and their use as theranostic agents” (Five Eleven Pharma Inc., priority 2015, dated 2019)
# Tests used:
# [1] = In vivo biodistribution in mice; design: species or system normal CD-1 male mice; conditions: iv
# Procedure: Biodistribution experiments were performed by intravenously administering ^68Ga labeled 1a-h, 2, 3, BPAMD, and [^18F]NaF into normal, healthy male CD-1 mice (25-30 g). The injection activity was 20-30 μCi/animal. […] Organs of interest were harvested, weighed, and counts of radioactivity were measured by a gamma counter. The biodistribution of each sample was calculated as a percentage of the injected dose per gram of wet tissue weight (% ID/g). Tibia and femur bones were harvested and counted as bone samples.
# [2] = In vitro binding to hydroxyapatite; conditions: 20 mg hydroxyapatite in saline, 10 min at room temperature
# Procedure: Hydroxyapatite (20 mg, Sigma-Aldrich, reagent grade powder) was incubated in isotonic saline (1 mL) for 24 h. Subsequently, either ^68Ga labeled 1a-h, 2, 3, BPAMD, or [^18F]NaF (1 μCi) was added to the hydroxyapatite suspension. After vortexing for 10 seconds, the suspension was incubated for 10 min at room temperature. The samples were then centrifuged at 10,000 rpm for 3 min and the supernatant was removed. The hydroxyapatite fraction was washed twice with saline (1 mL). Radioactivity in the combined supernatants and the hydroxyapatite fraction was measured using a gamma counter. The proportion of the ^68Ga complex binding to hydroxyapatite was determined as percent of ^68Ga absorbed to hydroxyapatite.
structure (smiles),measurement,setting,value
O=C([O-])CN(CCN(CC(=O)[O-])Cc1cc(CCC(=O)NC(P(=O)(O)O)P(=O)(O)O)ccc1[O-])Cc1cc(CCC(=O)NCC(=O)O)ccc1[O-].[68Ga+3] [[^68Ga]1c],bone to blood ratio,[1]; 2 min,0.7
same,bone to muscle ratio,[1]; 2 min,5
same,Biodistribution: Blood,[1]; 2 min post injection,11.7 ± 0.55 % dose/g
same,Biodistribution: Bone,[1]; 2 min post injection,8.40 ± 1.32 % dose/g
same,Biodistribution: Brain,[1]; 2 min post injection,0.27 ± 0.06 % dose/g
same,Biodistribution: Heart,[1]; 2 min post injection,4.57 ± 0.45 % dose/g
same,Biodistribution: Kidney,[1]; 2 min post injection,27.7 ± 5.46 % dose/g
same,Biodistribution: Liver,[1]; 2 min post injection,4.78 ± 0.18 % dose/g
same,Biodistribution: Lung,[1]; 2 min post injection,5.66 ± 0.24 % dose/g
same,Biodistribution: Muscle,[1]; 2 min post injection,1.68 ± 0.11 % dose/g
same,Biodistribution: Pancreas,[1]; 2 min post injection,1.99 ± 0.23 % dose/g
same,Biodistribution: Skin,[1]; 2 min post injection,2.05 ± 0.16 % dose/g
same,Biodistribution: Spleen,[1]; 2 min post injection,3.41 ± 0.08 % dose/g
same,bone to blood ratio,[1]; 30 min,8
same,bone to muscle ratio,[1]; 30 min,49
same,Biodistribution: Blood,[1]; 30 min (0.5 hr) post injection,1.34 ± 0.32 % dose/g
same,Biodistribution: Bone,[1]; 30 min (0.5 hr) post injection,11.3 ± 0.26 % dose/g
same,Biodistribution: Brain,[1]; 30 min (0.5 hr) post injection,0.05 ± 0.02 % dose/g
same,Biodistribution: Heart,[1]; 30 min (0.5 hr) post injection,0.49 ± 0.07 % dose/g
same,Biodistribution: Kidney,[1]; 30 min (0.5 hr) post injection,2.58 ± 0.05 % dose/g
same,Biodistribution: Liver,[1]; 30 min (0.5 hr) post injection,2.21 ± 0.27 % dose/g
same,Biodistribution: Lung,[1]; 30 min (0.5 hr) post injection,0.84 ± 0.11 % dose/g
same,Biodistribution: Muscle,[1]; 30 min (0.5 hr) post injection,0.23 ± 0.05 % dose/g
same,Biodistribution: Pancreas,[1]; 30 min (0.5 hr) post injection,0.39 ± 0.05 % dose/g
same,Biodistribution: Skin,[1]; 30 min (0.5 hr) post injection,0.53 ± 0.18 % dose/g
same,Biodistribution: Spleen,[1]; 30 min (0.5 hr) post injection,0.97 ± 0.01 % dose/g
same,bone to blood ratio,[1]; 60 min,23
same,bone to muscle ratio,[1]; 60 min,102
same,Biodistribution: Blood,[1]; 60 min (1 hr) post injection,0.64 ± 0.17 % dose/g
same,Biodistribution: Bone,[1]; 60 min (1 hr) post injection,14.7 ± 0.66 % dose/g
same,Biodistribution: Brain,[1]; 60 min (1 hr) post injection,0.03 ± 0.01 % dose/g
same,Biodistribution: Heart,[1]; 60 min (1 hr) post injection,0.24 ± 0.08 % dose/g
same,Biodistribution: Kidney,[1]; 60 min (1 hr) post injection,1.88 ± 0.10 % dose/g
same,Biodistribution: Liver,[1]; 60 min (1 hr) post injection,1.85 ± 0.11 % dose/g
same,Biodistribution: Lung,[1]; 60 min (1 hr) post injection,0.42 ± 0.08 % dose/g
same,Biodistribution: Muscle,[1]; 60 min (1 hr) post injection,0.14 ± 0.01 % dose/g
same,Biodistribution: Pancreas,[1]; 60 min (1 hr) post injection,0.23 ± 0.02 % dose/g
same,Biodistribution: Skin,[1]; 60 min (1 hr) post injection,0.33 ± 0.03 % dose/g
same,Biodistribution: Spleen,[1]; 60 min (1 hr) post injection,0.74 ± 0.10 % dose/g
same,bone to blood ratio,[1]; 120 min,39
same,bone to muscle ratio,[1]; 120 min,103
same,Biodistribution: Blood,[1]; 120 min post injection,0.41 ± 0.07 % dose/g
same,Biodistribution: Bone,[1]; 120 min post injection,16.1 ± 2.71 % dose/g
same,Biodistribution: Brain,[1]; 120 min post injection,0.02 ± 0.01 % dose/g
same,Biodistribution: Heart,[1]; 120 min post injection,0.19 ± 0.03 % dose/g
same,Biodistribution: Kidney,[1]; 120 min post injection,2.05 ± 0.27 % dose/g
same,Biodistribution: Liver,[1]; 120 min post injection,1.99 ± 0.09 % dose/g
same,Biodistribution: Lung,[1]; 120 min post injection,0.31 ± 0.06 % dose/g
same,Biodistribution: Muscle,[1]; 120 min post injection,0.16 ± 0.01 % dose/g
same,Biodistribution: Pancreas,[1]; 120 min post injection,0.20 ± 0.03 % dose/g
same,Biodistribution: Skin,[1]; 120 min post injection,0.31 ± 0.04 % dose/g
same,Biodistribution: Spleen,[1]; 120 min post injection,0.71 ± 0.29 % dose/g
same,Hydroxyapatite Binding (%),[2],89.1 ± 1.0%
